Each structure is given as a SMILES string. Where a name gives a salt, the structure may show the parent alone. Read-outs that look alike come from different tables or passages of the source. Some results are limits rather than exact numbers.

For experiment [1], the target named is T1, ROS1 (Homo sapiens, UniProt P08922).
T1 construct: purchased Carna Biosciences 08-163
Kind of experiment: ROS1 autophosphorylation inhibitory activity evaluation (ADP-Glo). The settings on record: 200 nM inactive ROS1, ATP 1 mM, 25° C. 1.5 hours, ADP generated, four separate measurements. The experiment is classed as biochemical. The protocol: Fifty mM HEPES (pH 7.5), 10 mM MgCl2, 0.01% Brij-58, and 2.5 mM DTT were mixed to prepare an enzymatic reaction solution. […] ATP (final concentration: 1 mM) was further added thereto at a concentration of 2.5 μL/well. The resulting plate was left standing at 25° C. for 1.5 hours to cause enzymatic reaction. After the completion of enzymatic reaction, ADP-Glo Reagent-1 (Promega, V9103) was added thereto at a concentration of 2.5 μL/well, and the plate was left standing at room temperature for 60 minutes. Then, ADP-Glo Reagent-2 (Promega) was added thereto at a concentration of 5 μL/well, and the plate was left standing at room temperature for 60 minutes. The amount of ADP generated by the autophosphorylation of ROS1 was measured using EnVision (PerkinElmer Japan). The amount of ADP generated in four separate measurements was defined as the autophosphorylation intensity of ROS1. IC50 values were calculated by curve fitting using GraphPad Prism version 4 (GraphPad software).
A general note: ADP-Glo turns the ADP formed in a reaction into a luminescent signal.

In experiment [2] the target is T1, ROS1. Kind of experiment: ROS1 kinase inhibitory activity evaluation (mobility shift, EZ Reader II). The settings on record: ROS1 25 pg/μL, FL-Peptide 22 substrate, three separate measurements. The experiment is classed as biochemical. The protocol: Next, a substrate reaction solution was prepared. […] Then, the reaction stop solution was added thereto at a concentration of 40 μL/well. Substrate phosphorylation intensity was measured using EZ Reader II (Caliper Life Sciences).

Experiment [3] relates to HCC78 cells having ROS1 fusion gene. Kind of experiment: HCC78 cell growth assay (CellTiter-Glo). Type of experiment: cell-based. The following applies: Homo sapiens, 72 hours culture, 2% FBS medium, luminescence, four separate measurements, read-out: growth inhibitory effect on HCC78 cells having ROS1 fusion gene IC50. The protocol:
Each compound of the present invention was assayed for its cell growth inhibitory effect using HCC78 cells having ROS1 fusion gene.
The suspension was dispensed at a concentration of 100 μL/well to a 96-well culture plate for cell culture (SUMITOMO BAKELITE, Cat No MS-0096S) (hereinafter, referred to as an assay plate). […] In this context, the final concentration of DMSO was set to 0.4%. Then, the cells were cultured for 72 hours in a CO2 incubator.
CellTiter-Glo Luminescent Cell Viability Assay reagent (Promega, Cat No G7571) was dispensed at a concentration of 100 μL/well to the assay plate. The contents in each well were reacted at room temperature for 10 minutes while stirred using a plate mixer. […] The luminescence intensity of each well was measured using EnVision. The luminescence intensity of each well obtained in four separate measurements was defined as the number of cells. IC50 values were calculated by curve fitting using GraphPad Prism version 4.
In general terms: Cellular ATP, detected with luciferase, serves as a proxy for viable cell number.

T1 sequence (P08922 28-2347): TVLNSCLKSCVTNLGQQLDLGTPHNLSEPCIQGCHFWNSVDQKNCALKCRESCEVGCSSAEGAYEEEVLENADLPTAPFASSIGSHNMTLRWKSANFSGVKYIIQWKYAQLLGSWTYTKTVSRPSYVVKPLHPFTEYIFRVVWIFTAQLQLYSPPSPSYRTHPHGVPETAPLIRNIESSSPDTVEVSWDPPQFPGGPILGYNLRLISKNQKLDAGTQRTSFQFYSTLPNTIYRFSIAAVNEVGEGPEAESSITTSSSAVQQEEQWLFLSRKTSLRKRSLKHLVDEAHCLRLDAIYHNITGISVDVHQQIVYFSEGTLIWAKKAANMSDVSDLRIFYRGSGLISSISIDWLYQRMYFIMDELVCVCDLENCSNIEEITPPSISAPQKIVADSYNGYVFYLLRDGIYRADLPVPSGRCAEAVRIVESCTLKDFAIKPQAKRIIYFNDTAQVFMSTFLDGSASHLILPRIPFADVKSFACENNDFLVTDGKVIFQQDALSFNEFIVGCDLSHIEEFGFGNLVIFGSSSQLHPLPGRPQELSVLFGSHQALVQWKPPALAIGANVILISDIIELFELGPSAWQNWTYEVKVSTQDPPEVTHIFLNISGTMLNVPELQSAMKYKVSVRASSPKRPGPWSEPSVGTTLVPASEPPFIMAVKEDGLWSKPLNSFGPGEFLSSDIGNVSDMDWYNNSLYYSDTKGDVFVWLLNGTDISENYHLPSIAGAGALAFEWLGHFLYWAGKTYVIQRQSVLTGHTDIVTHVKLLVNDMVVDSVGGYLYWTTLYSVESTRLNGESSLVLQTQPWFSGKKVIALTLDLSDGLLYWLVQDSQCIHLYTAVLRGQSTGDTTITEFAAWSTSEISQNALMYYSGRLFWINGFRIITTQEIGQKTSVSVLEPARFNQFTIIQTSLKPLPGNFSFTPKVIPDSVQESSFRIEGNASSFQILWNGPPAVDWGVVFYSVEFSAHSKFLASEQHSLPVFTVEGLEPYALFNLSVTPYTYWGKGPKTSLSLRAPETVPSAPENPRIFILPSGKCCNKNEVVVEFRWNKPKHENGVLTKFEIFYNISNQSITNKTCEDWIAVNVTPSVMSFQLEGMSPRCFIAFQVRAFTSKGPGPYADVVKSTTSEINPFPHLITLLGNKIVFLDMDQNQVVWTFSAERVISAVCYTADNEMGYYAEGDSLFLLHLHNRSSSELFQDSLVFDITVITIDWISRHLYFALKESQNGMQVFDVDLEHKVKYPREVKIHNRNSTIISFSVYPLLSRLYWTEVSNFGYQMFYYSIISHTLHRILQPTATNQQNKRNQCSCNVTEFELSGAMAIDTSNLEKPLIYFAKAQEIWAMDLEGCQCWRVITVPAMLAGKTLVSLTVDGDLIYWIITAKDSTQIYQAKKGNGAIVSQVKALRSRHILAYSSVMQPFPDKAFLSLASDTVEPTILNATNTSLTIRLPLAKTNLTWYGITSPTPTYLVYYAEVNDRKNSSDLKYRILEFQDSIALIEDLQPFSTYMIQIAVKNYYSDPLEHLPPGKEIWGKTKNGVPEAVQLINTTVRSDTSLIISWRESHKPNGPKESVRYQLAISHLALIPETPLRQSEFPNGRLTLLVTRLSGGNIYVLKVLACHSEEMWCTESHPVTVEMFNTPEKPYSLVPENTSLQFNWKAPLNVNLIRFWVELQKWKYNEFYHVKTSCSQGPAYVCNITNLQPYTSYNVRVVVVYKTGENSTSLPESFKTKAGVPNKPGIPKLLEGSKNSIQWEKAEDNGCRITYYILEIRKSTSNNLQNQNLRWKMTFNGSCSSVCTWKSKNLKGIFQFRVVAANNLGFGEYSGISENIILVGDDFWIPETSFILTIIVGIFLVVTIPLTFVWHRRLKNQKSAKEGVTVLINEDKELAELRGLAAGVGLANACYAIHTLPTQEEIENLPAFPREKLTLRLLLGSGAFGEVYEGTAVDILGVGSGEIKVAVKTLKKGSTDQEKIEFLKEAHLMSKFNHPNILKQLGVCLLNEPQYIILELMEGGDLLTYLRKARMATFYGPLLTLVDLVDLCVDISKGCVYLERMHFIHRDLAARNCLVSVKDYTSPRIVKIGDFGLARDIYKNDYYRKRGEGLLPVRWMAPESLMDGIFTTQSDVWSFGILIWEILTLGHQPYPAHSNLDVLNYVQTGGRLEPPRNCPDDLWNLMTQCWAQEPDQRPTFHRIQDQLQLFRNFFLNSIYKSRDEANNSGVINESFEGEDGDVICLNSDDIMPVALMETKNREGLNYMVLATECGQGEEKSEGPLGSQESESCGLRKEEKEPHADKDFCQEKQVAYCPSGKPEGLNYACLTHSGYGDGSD

`C[C@@H](Nc1ccc2ncc(-c3ccc(OC4CCCC4N)cc3)n2n1)c1cccc(F)c1` (single isomer, unassigned) [Example 32]: the values for the IC50 in experiment [1] and in experiment [2] were under 20 nM and under 1 nM, respectively.
In experiment [1], `CN(Cc1cccc(F)c1)c1ccc2ncc(-c3ccc(N4CC(C)(N)CC4=O)cc3)n2n1` (single isomer, unassigned) [Example 86, 4-Amino-1-[4-[6-[(3-fluorophenyl)methyl-methylamino]imidazo[1,2-b]pyridazin-3-yl]phenyl]-4-methylpyrrolidin-2-one] came in with an IC50 of under 20 nM.
In the case of `CN(Cc1cccc(F)c1)c1ccc2ncc(-c3ccc(N4CC(C)(N)CC4=O)cc3)n2n1` (single isomer, unassigned) [Example 87, 4-Amino-1-[4-[6-[(3-fluorophenyl)methyl-methylamino]imidazo[1,2-b]pyridazin-3-yl]phenyl]-4-methylpyrrolidin-2-one], the IC50 in experiment [1] was 20 to 100 nM; in experiment [3] (HCC78, 72 h) it was 20 to 100 nM; in experiment [2] it was 1 to 10 nM.
`CN(Cc1cncc(F)c1)c1ccc2ncc(-c3ccc(N4CC(C)(N)CC4=O)cc3)n2n1` (single isomer, unassigned) [Example 124, 4-Amino-1-[4-[6-[(5-fluoro-3-pyridyl)methyl-methylamino]imidazo[1,2-b]pyridazin-3-yl]phenyl]-4-methylpyrrolidin-2-one]: the half-inhibitory concentration (IC50) in experiment [1] is under 20 nM; in experiment [3] (HCC78, 72 h), under 20 nM; in experiment [2], 1 to 10 nM.
`CN(Cc1cncc(F)c1)c1ccc2ncc(-c3ccc(N4CC(C)(N)CC4=O)cc3)n2n1` (single isomer, unassigned) [Example 125, 4-Amino-1-[4-[6-[(5-fluoro-3-pyridyl)methyl-methylamino]imidazo[1,2-b]pyridazin-3-yl]phenyl]-4-methylpyrrolidin-2-one] displayed a concentration for half-maximal inhibition (IC50) in experiment [1] of 20 to 100 nM.
As for `C[C@@H](Nc1ccc2ncc(-c3ccc(OC[C@@H]4CC(F)CN4)cc3)n2n1)c1cccc(F)c1` (stereo in doubt) [Example 33, N-[(1R)-1-(3-Fluorophenyl)ethyl]-3-[4-[[(2S,4S)-4-fluoropyrrolidin-2-yl]methoxy]phenyl]imidazo[1,2-b]pyridazin-6-amine], the half-maximal inhibitory concentration (IC50) in experiment [1] was under 20 nM; in experiment [3] (HCC78, 72 h), 20 to 100 nM; in experiment [2], under 1 nM.
The matching figures for `c1ccc(CNc2ccc3ncc(-c4ccc(OC[C@@H]5CCCN5)cc4)n3n2)cc1` [Example 1, N-Benzyl-3-[4-[[(2S)-pyrrolidin-2-yl]methoxy]phenyl]imidazo[1,2-b]pyridazin-6-amine]: 20 to 100 nM, 20 to 100 nM and 1 to 10 nM.
The like results for `c1ccc(CNc2ccc3ncc(-c4cccc(OC[C@@H]5CCCN5)c4)n3n2)cc1` [Example 2, N-Benzyl-3-[3-[[(2S)-pyrrolidin-2-yl]methoxy]phenyl]imidazo[1,2-b]pyridazin-6-amine] were, in that order, 20 to 100 nM, 100 to 600 nM and 1 to 10 nM.
The matching figures for `c1ccc(CNc2ccc3ncc(-c4ccc(O[C@@H]5CCNC5)cc4)n3n2)cc1` [Example 3, N-Benzyl-3-[4-[(3R)-pyrrolidin-3-yl]oxyphenyl]imidazo[1,2-b]pyridazin-6-amine]: 20 to 100 nM, 20 to 100 nM and 1 to 10 nM.
In the case of `c1ccc(CNc2ccc3ncc(-c4cccc(O[C@@H]5CCNC5)c4)n3n2)cc1` [Example 4, N-Benzyl-3-[3-[(3R)-pyrrolidin-3-yl]oxyphenyl]imidazo[1,2-b]pyridazin-6-amine], the IC50 in experiment [1] was 100 to 150 nM; in experiment [3] (HCC78, 72 h), 100 to 600 nM; in experiment [2] it was 1 to 10 nM.
For the compound `c1ccc(CNc2ccc3ncc(-c4ccc(OC[C@@H]5CCNC5)cc4)n3n2)cc1` [Example 5, N-Benzyl-3-[4-[[(3R)-pyrrolidin-3-yl]methoxy]phenyl]imidazo[1,2-b]pyridazin-6-amine], the IC50 in experiment [1] was 20 to 100 nM; in experiment [3] (HCC78, 72 h), 20 to 100 nM; in experiment [2], 1 to 10 nM.
With `c1ccc(CNc2ccc3ncc(-c4ccc(OCC[C@@H]5CCCN5)cc4)n3n2)cc1` [Example 6, N-Benzyl-3-[4-[2-[(2S)-pyrrolidin-2-yl]ethoxy]phenyl]imidazo[1,2-b]pyridazin-6-amine], the IC50 in experiment [1] was 20 to 100 nM; in experiment [3] (HCC78, 72 h), 20 to 100 nM; in experiment [2] it was 1 to 10 nM.
As to `OCCN1CCC[C@H]1COc1cccc(-c2cnc3ccc(NCc4ccccc4)nn23)c1` [Example 7, 2-[(2S)-2-[[3-[6-(Benzylamino)imidazo[1,2-b]pyridazin-3-yl]phenoxy]methyl]pyrrolidin-1-yl]ethanol], the IC50 in experiment [1] is 100 to 150 nM; in experiment [3] (HCC78, 72 h), 20 to 100 nM; in experiment [2], 1 to 10 nM.
Regarding `CN1CCC[C@H]1COc1cccc(-c2cnc3ccc(NCc4ccccc4)nn23)c1` [Example 8, N-Benzyl-3-[3-[[(2S)-1-methylpyrrolidin-2-yl]methoxy]phenyl]imidazo[1,2-b]pyridazin-6-amine], the half-maximal inhibitory concentration (IC50) in experiment [1] lay within 20 to 100 nM; in experiment [3] (HCC78, 72 h), 20 to 100 nM; in experiment [2], 1 to 10 nM.
Consider `CN(Cc1cccc(F)c1)c1ccc2ncc(-c3ccc(OC[C@@H]4CCCN4)cc3)n2n1` [Example 10, N-[(3-Fluorophenyl)methyl]-N-methyl-3-[4-[[(2S)-pyrrolidin-2-yl]methoxy]phenyl]imidazo[1,2-b]pyridazin-6-amine], for which the half-inhibitory concentration (IC50) in experiment [1] lay in the range of 20 to 100 nM; in experiment [3] (HCC78, 72 h) it was 100 to 600 nM; in experiment [2] it was 1 to 10 nM.
The like results for `Fc1cccc(COc2ccc3ncc(-c4ccc(OC[C@H]5CCCN5)cc4)n3n2)c1` [Example 11, 6-[(3-Fluorophenyl)methoxy]-3-[4-[[(2R)-pyrrolidin-2-yl]methoxy]phenyl]imidazo[1,2-b]pyridazine] were, in that order, 20 to 100 nM, 100 to 600 nM and 1 to 10 nM.
On to `C[C@@H](Oc1ccc2ncc(-c3ccc(OC[C@@H]4CCCN4)cc3)n2n1)c1cccc(F)c1` [Example 16, 6-[(1R)-1-(3-Fluorophenyl)ethoxy]-3-[4-[[(2S)-pyrrolidin-2-yl]methoxy]phenyl]imidazo[1,2-b]pyridazine], for which the half-maximal inhibitory concentration (IC50) is 20 to 100 nM in experiment [3] (HCC78, 72 h) and under 1 nM in experiment [2].
As to `CC(N)COc1ccc(-c2cnc3ccc(N[C@H](C)c4cccc(F)c4)nn23)cc1` (stereo partly drawn) [Example 35, 3-[4-(2-Aminopropoxy)phenyl]-N-[(1R)-1-(3-fluorophenyl)ethyl]imidazo[1,2-b]pyridazin-6-amine], in experiment [3] (HCC78, 72 h), the IC50 is under 20 nM.
With `CN(Cc1cccc(Cl)c1)c1ccc2ncc(-c3ccc(N4CC(N)CC4=O)cc3)n2n1` (stereo not shown) [Example 96, 4-Amino-1-[4-[6-[(3-chlorophenyl)methyl-methylamino]imidazo[1,2-b]pyridazin-3-yl]phenyl]pyrrolidin-2-one], in experiment [3] (HCC78), the IC50 lay within 100 to 600 nM.
Turning to `C[C@@H](Oc1ccc2ncc(-c3ccc(N4C[C@@H](N)CC4=O)cc3)n2n1)c1cccc(F)c1` [Example 133, (4S)-4-Amino-1-[4-[6-[(1R)-1-(3-fluorophenyl)ethoxy]imidazo[1,2-b]pyridazin-3-yl]phenyl]pyrrolidin-2-one hydrochloride], in experiment [1], the IC50 was under 20 nM.
`CC(Oc1ccc2ncc(-c3ccc(N4C[C@@H](N)CC4=O)cc3)n2n1)c1cc(F)cnc1F` (stereo partly drawn) [Example 134, (4S)-4-Amino-1-[4-[6-[(1-(2,5-difluoro-3-pyridyl)ethoxy]imidazo[1,2-b]pyridazin-3-yl]phenyl]pyrrolidin-2-one hydrochloride]: the IC50 in experiment [2] lay within 1 to 10 nM.

Broadly, the IC50 is the concentration that inhibits the measured activity by half.
